Results published in ChEMBL document CHEMBL1268944, “The antiplasmodial activity of norcantharidin analogs” (Bioorg Med Chem Lett, 2010).

Key:
Plasmodium falciparum [1] = assay: Antiplasmodial activity against chloroquine-sensitive Plasmodium falciparum D6 assessed as inhibition of parasite LDH activity after 72 hrs by malstat reagent method; assay type: functional, organism-based; settings: D6, 72 h
Plasmodium falciparum [2] = assay: Antiplasmodial activity against chloroquine-resistant Plasmodium falciparum W2 assessed as inhibition of parasite LDH activity […] after 72 hrs by malstat reagent method; assay type: functional, organism-based; settings: W2, 72 h
[3] = Inhibition of human PP1 expressed in Escherichia coli BL21
[4] = Inhibition of human PP2A expressed in Escherichia coli BL21
Plasmodium falciparum [5] = assay: Ratio of Norcantharidin IC50 to compound IC50 for chloroquine-sensitive Plasmodium falciparum D6; assay type: functional
Plasmodium falciparum [6] = assay: Ratio of Norcantharidin IC50 to compound IC50 for chloroquine-resistant Plasmodium falciparum W2; assay type: functional
[7] = Inhibition of human PP1
[8] = Inhibition of human PP2A

Row | Compound | IC50 (Plasmodium falciparum [1]) [µM] | IC50 (Plasmodium falciparum [2]) [µM] | IC50 [3] [µM] | IC50 [4] [µM] | Ratio IC50 (Plasmodium falciparum [5]) | Ratio IC50 (Plasmodium falciparum [6]) | IC50 [7] [µM] | IC50 [8] [µM]
1 | C[C@@]12C(=O)OC(=O)[C@]1(C)[C@H]1CC[C@@H]2O1 [CANTHARIDIN] | 9 | 9 | 1.8 | 0.2 | – | – | – | –
2 | O=C1OC(=O)C2C3CCC(O3)C12 (centres undefined) [DEMETHYL-CANTHARIDIN] | 60 | 50 | 2 | 0.4 | – | – | – | –
3 | C=CCNC(=O)C1C(C(=O)O)[C@@H]2CC[C@H]1O2 (some centres undefined) | 3 | 3 | – | – | 20 | 20 | 40 | 10
